Assay results: US9090593B2, “Bicyclic compounds as Pim inhibitors” (AMGEN INC., priority 2010, dated 2015)

Target: T1, full length recombinant Pim-1 protein (Homo sapiens, UniProt P11309)
T1 construct: by full length recombinant Pim-1, Pim-2, or Pim-3 protein; hexahistidine tag followed by a thrombin cleavage site (N); made in house; host or cells: Sf9 (baculovirus) or E. coli (pET28)
Test: Pim-1 enzyme assay (HTRF, phosphorylation of biotinylated-BAD (S112) peptide)
Assay type: biochemical
Conditions: read-out: Pim_1_IC50
Source text: (§1) These cDNAs were used as templates in PCR reactions to produce full-length DNA clones of the PIMs. […] PCR products were digested with […] and EcoRI for Pim-1 and BamHI and EcoRI for Pim-2 and ligated into a modified baculovirus transfer vector (pFastBac1) cleaved with BamHI and EcoRI. For bacterial expression, the same cleaved PCR products encoding Pim-1 or Pim-2 were ligated into a modified E. coli expression vector pET28(a) cleaved with BamHI and EcoRI Amino-terminal hexahistidine tags followed by a thrombin cleavage site were previously added to the vectors using standard methods of molecular biology. Recombinant baculoviruses expressing Pim-1 or Pim-2 were made using standard methods (Fastbac manual, Invitrogen, Carlsbad, Calif.). Infection of Sf9 cells was done at an m.o.i. of greater than 5 for 24-48 h. Cells were harvested by centrifugation and frozen at −80 C. For E. coli expression, cells carrying pET28-His6-Th-Pim-1 or pET28-His6-Th-Pim-2 were picked from a single colony and grown o/n in LB media. The o/n culture was used to inoculate a 2 liter flask with 500 mL media. This was grown o/n and used to inoculate 15-20 liters of Terrific Broth in a New Brunswick Scientific fermentor. The E. coli were grown at 37° C. to and OD600>1.6. The temperature was dropped to 18° C. and o/n expression was induced with 0.5 mM IPTG. Cells were harvested by centrifugation and frozen at −80° C.
(§2) This step was repeated 3× and the resin was transferred to a 2.5 cm glass column. Ten column volumes of wash buffer (0.05 M HEPES, pH 8.0, 0.1 M NaCl, 0.01 M 2-mercaptoethanol, 10% (w/v) glycerol) were applied to the resin followed by 10 column volumes of elution buffer (0.05 M HEPES, pH 8.0, 0.25 M NaCl, 0.01 M 2-mercaptoethanol, 10% (w/v) glycerol, 0.1 M imidazole). Fractions were analyzed by SDS-PAGE and those containing the protein of interest were pooled and concentrated. The concentrated protein was applied to an Amersham Superdex 75 (XK 26/60) column equilibrated in 0.025 M Tris-HCl, pH 7.5, 0.1 M NaCl, 0.01 M 2-mercaptoethanol, 10% (w/v) glycerol. […] Fractions containing the monomeric protein of interest were pooled, concentrated to ˜2 mg/mL, and stored at −80° C.
(§3) The phosphorylation of biotinylated-BAD (S112) peptide by full length recombinant Pim-1, Pim-2, or Pim-3 protein was detected with streptavidin:Allophycocyanin (APC) conjugate and a europium (Eu) labeled antibody directed against phosphorylated-BAD (S112). […] The fluorescence is directly proportional to the amount of phosphorylated BAD peptide present in the reaction.
(§4) A reference compound was included on each assay plate in order to validate that plate; on one plate of every assay run, two additional reference compounds were included.
(§5) The final buffer conditions were as follows: 60 mM Hepes, pH 7.0, 0.05% BSA, 2 mM DTT. […] The reaction was stopped by the addition of 3 mM EDTA, and fluorescence was measured by an HTRF® Rubystar microplate reader. For each plate, percent of control (POC) values were calculated for each well. Values for the IC50 IP were estimated using a standard 4-parameter logistic model.

T1 sequence (P11309 whole entry): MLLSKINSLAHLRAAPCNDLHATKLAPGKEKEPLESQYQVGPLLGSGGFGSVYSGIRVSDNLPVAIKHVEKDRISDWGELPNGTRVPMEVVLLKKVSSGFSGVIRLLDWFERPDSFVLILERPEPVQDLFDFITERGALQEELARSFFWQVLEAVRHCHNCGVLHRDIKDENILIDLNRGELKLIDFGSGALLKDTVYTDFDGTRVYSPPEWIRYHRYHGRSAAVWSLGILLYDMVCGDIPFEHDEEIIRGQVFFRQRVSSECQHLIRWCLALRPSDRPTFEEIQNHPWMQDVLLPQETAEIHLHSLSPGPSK

Row | Compound | IC50 [nM]
1 | CN(C)C(=O)c1ccc2[nH]nc(-c3cncc(N[C@@H]4CCCNC4)n3)c2c1 [Example 494] | 834
2 | CN(C)c1cc(=O)[nH]c(-c2c[nH]c3ccc(-c4c(F)cccc4F)cc23)n1 [Example 496] | 159
3 | CC(C)Nc1cc(=O)[nH]c(-c2c[nH]c3ccc(-c4c(F)cccc4F)cc23)n1 [Example 499] | 364
4 | CC1CCCCN1c1nc(-c2ccc3[nH]cc(-c4cncc(O[C@@H]5CCCNC5)n4)c3c2)cs1 (some centres unmarked) [Example 501] | 91
5 | CC(C)Oc1cncc(-c2ccc3[nH]cc(-c4nnc(N[C@H]5CCNC5)o4)c3c2)n1 [Example 511] | 98
6 | c1cnc(-c2c[nH]c3ccc(-c4cncc(C5CC5)n4)cc23)cn1 [Example 521] | 425
7 | CC(C)Nc1nnc(-c2c[nH]c3ccc(-c4cncc(OC(C)C)n4)cc23)o1 [Example 522] | 90
8 | CC(C)Oc1cncc(-c2ccc3[nH]cc(-c4nnc(Nc5ccccc5)o4)c3c2)n1 [Example 523] | 359
9 | O=c1cc(-c2n[nH]c3ccc(-c4c(F)cccc4F)cc23)nc[nH]1 [Example 530] | 834
10 | COC(=O)c1ccc2[nH]cc(-c3ccnc(N[C@@H]4CCCNC4)n3)c2c1 [Example 533] | 105
11 | O=C(O)c1ccc2[nH]cc(-c3cncc(N[C@@H]4CCCNC4)n3)c2c1 [Example 538] | 241

These reach a lower IC50. Values come first.

Row | IC50 [nM] | Compound
12 | 46 | COC(=O)c1ccc2[nH]nc(-c3ccnc(O[C@@H]4CCCNC4)n3)c2c1 [Example 497]
13 | 70 | COC(=O)c1ccc2[nH]nc(-c3nccc(O[C@@H]4CCCNC4)n3)c2c1 [Example 498]
14 | 9 | CC(C)Nc1nc(-c2c[nH]c3ccc(-c4c(F)cccc4F)cc23)cc(=O)[nH]1 [Example 500]
15 | 20 | c1ncc(-c2ccc3[nH]cc(-c4cncc(O[C@@H]5CCCNC5)n4)c3c2)cc1NC1CC1 [Example 502]
16 | 29 | Clc1cncc(-c2ccc3[nH]cc(-c4cncc(O[C@@H]5CCCNC5)n4)c3c2)c1 [Example 505]
17 | 47 | CC(C)Oc1cncc(-c2ccc3[nH]cc(-c4nnc(N[C@@H]5CCNC5)o4)c3c2)n1 [Example 512]
18 | 48 | CC(C)Oc1cncc(-c2ccc3[nH]cc(-c4nnc(NC5CCNCC5)o4)c3c2)n1 [Example 513]
19 | 52 | CC(C)Oc1cncc(-c2ccc3[nH]cc(-c4nnc(N[C@H]5CCCNC5)o4)c3c2)n1 [Example 514]
20 | 52 | CC(C)Oc1cncc(-c2ccc3[nH]cc(-c4nnc(N5CCCC5)o4)c3c2)n1 [Example 520]
21 | 34 | CN(C)c1nc(-c2n[nH]c3ccc(-c4c(F)cccc4F)cc23)cc(=O)[nH]1 [Example 526]
22 | 20 | COC(=O)c1ccc2[nH]cc(-c3nccc(N[C@@H]4CCCNC4)n3)c2c1 [Example 531]
23 | 4 | COC(=O)c1ccc2[nH]cc(-c3cncc(N[C@@H]4CCCNC4)n3)c2c1 [Example 532]
24 | 70 | CCCCc1nc(-c2n[nH]c3ccc(-c4c(F)cccc4F)cc23)cc(=O)[nH]1 [Example 535]
25 | 30 | N#Cc1ccc2[nH]cc(-c3cncc(N[C@@H]4CCCNC4)n3)c2c1 [Example 536]

Target: T2, full length recombinant Pim-2 protein (Homo sapiens, UniProt Q9P1W9)
T2 construct: by full length recombinant Pim-1, Pim-2, or Pim-3 protein; hexahistidine tag followed by a thrombin cleavage site (N); made in house; host or cells: Sf9 (baculovirus) or E. coli (pET28)
Test: Pim-2 enzyme assay (HTRF, phosphorylation of biotinylated-BAD (S112) peptide)
Assay type: biochemical
Conditions: read-out: Pim2_IC50
Source text: as §1, §2, §3, §4, §5

T2 sequence (Q9P1W9 whole entry): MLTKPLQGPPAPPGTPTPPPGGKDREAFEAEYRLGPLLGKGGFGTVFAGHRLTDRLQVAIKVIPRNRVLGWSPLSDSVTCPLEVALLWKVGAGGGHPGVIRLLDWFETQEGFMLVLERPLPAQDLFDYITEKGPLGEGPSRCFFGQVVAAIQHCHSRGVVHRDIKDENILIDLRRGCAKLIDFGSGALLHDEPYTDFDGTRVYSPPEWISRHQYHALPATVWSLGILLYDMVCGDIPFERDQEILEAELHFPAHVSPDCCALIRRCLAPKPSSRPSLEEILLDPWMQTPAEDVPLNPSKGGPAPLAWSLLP

Row | Compound | IC50 [nM]
26 | CN(C)C(=O)c1ccc2[nH]nc(-c3cncc(N[C@@H]4CCCNC4)n3)c2c1 [Example 494] | > 1000
27 | CN(C)c1cc(=O)[nH]c(-c2c[nH]c3ccc(-c4c(F)cccc4F)cc23)n1 [Example 496] | > 1000
28 | CC(C)Nc1cc(=O)[nH]c(-c2c[nH]c3ccc(-c4c(F)cccc4F)cc23)n1 [Example 499] | > 1000
29 | CC1CCCCN1c1nc(-c2ccc3[nH]cc(-c4cncc(O[C@@H]5CCCNC5)n4)c3c2)cs1 (some centres unmarked) [Example 501] | 812
30 | CC(C)Oc1cncc(-c2ccc3[nH]cc(-c4nnc(N[C@H]5CCNC5)o4)c3c2)n1 [Example 511] | 480
31 | c1cnc(-c2c[nH]c3ccc(-c4cncc(C5CC5)n4)cc23)cn1 [Example 521] | > 1000
32 | CC(C)Nc1nnc(-c2c[nH]c3ccc(-c4cncc(OC(C)C)n4)cc23)o1 [Example 522] | 446
33 | CC(C)Oc1cncc(-c2ccc3[nH]cc(-c4nnc(Nc5ccccc5)o4)c3c2)n1 [Example 523] | > 1000
34 | O=c1cc(-c2n[nH]c3ccc(-c4c(F)cccc4F)cc23)nc[nH]1 [Example 530] | 565
35 | COC(=O)c1ccc2[nH]cc(-c3ccnc(N[C@@H]4CCCNC4)n3)c2c1 [Example 533] | 237
36 | O=C(O)c1ccc2[nH]cc(-c3cncc(N[C@@H]4CCCNC4)n3)c2c1 [Example 538] | > 1000

Second part, the compound after the results:

Row | IC50 [nM] | Compound
37 | 207 | COC(=O)c1ccc2[nH]nc(-c3ccnc(O[C@@H]4CCCNC4)n3)c2c1 [Example 497]
38 | 726 | COC(=O)c1ccc2[nH]nc(-c3nccc(O[C@@H]4CCCNC4)n3)c2c1 [Example 498]
39 | 19 | CC(C)Nc1nc(-c2c[nH]c3ccc(-c4c(F)cccc4F)cc23)cc(=O)[nH]1 [Example 500]
40 | 424 | c1ncc(-c2ccc3[nH]cc(-c4cncc(O[C@@H]5CCCNC5)n4)c3c2)cc1NC1CC1 [Example 502]
41 | 225 | Clc1cncc(-c2ccc3[nH]cc(-c4cncc(O[C@@H]5CCCNC5)n4)c3c2)c1 [Example 505]
42 | 93 | CC(C)Oc1cncc(-c2ccc3[nH]cc(-c4nnc(N[C@@H]5CCNC5)o4)c3c2)n1 [Example 512]
43 | 218 | CC(C)Oc1cncc(-c2ccc3[nH]cc(-c4nnc(NC5CCNCC5)o4)c3c2)n1 [Example 513]
44 | 194 | CC(C)Oc1cncc(-c2ccc3[nH]cc(-c4nnc(N[C@H]5CCCNC5)o4)c3c2)n1 [Example 514]
45 | 527 | CC(C)Oc1cncc(-c2ccc3[nH]cc(-c4nnc(N5CCCC5)o4)c3c2)n1 [Example 520]
46 | 91 | CN(C)c1nc(-c2n[nH]c3ccc(-c4c(F)cccc4F)cc23)cc(=O)[nH]1 [Example 526]
47 | 182 | COC(=O)c1ccc2[nH]cc(-c3nccc(N[C@@H]4CCCNC4)n3)c2c1 [Example 531]
48 | 56 | COC(=O)c1ccc2[nH]cc(-c3cncc(N[C@@H]4CCCNC4)n3)c2c1 [Example 532]
49 | 262 | CCCCc1nc(-c2n[nH]c3ccc(-c4c(F)cccc4F)cc23)cc(=O)[nH]1 [Example 535]
50 | 208 | N#Cc1ccc2[nH]cc(-c3cncc(N[C@@H]4CCCNC4)n3)c2c1 [Example 536]
